Results published in patent US20080194482A1, “Selective Apac2 Receptor Peptide Agonists” (priority 2005, published 2008).
Square brackets hold non-standard residues; d marks the D form. Peptide text beside a SMILES is read from it. * marks the point of attachment. Orn = NCCC[C@H](N)C(=O)O; Hexanoyl = CCCCCC(=O)*; Aib = CC(C)(N)C(=O)O

Key:
human VPAC2 = biological target: T1, human VPAC2 (Homo sapiens, UniProt P41587); experiment: Alpha screen cAMP assay, in vitro potency at human VPAC2 receptor; type: cell-based; conditions: cAMP generation; single result from two analyses in a single run, some values average of more than one experiment
T1 construct: expressed in transfected cells
T1 sequence (P41587 24-438): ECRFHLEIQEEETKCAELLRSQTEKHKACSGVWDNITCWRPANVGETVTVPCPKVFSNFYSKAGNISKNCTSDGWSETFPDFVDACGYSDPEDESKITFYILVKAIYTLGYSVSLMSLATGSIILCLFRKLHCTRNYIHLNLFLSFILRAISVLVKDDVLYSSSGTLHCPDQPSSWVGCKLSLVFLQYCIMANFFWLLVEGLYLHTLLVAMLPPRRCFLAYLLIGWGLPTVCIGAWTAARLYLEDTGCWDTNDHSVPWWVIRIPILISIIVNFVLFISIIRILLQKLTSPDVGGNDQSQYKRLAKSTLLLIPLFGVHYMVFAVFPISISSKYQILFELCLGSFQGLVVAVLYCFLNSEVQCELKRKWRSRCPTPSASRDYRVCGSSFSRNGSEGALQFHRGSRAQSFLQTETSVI
Procedure: Alpha screen: Cells are washed in the culture flask once with PBS. Then, the cells are rinsed with enzyme free dissociation buffer. The dissociated cells are removed. The cells are then spun down and washed in stimulation buffer. For each data point, 50,000 cells suspended in stimulation buffer are used. To this buffer, Alpha screen acceptor beads are added along with the stimuli. This mixture is incubated for 60 minutes. Lysis buffer and Alpha screen donor beads are added and are incubated for 60 to 120 minutes. The Alpha screen signal (indicative of intracellular cAMP levels) is read in a suitable instrument (e.g. AlphaQuest from Perkin-Elmer). Steps including Alpha screen donor and acceptor beads are performed in reduced light. The EC50 for cAMP generation is calculated from the raw signal or is based on absolute cAMP levels as determined by a standard curve performed on each plate.
Results for each agonist are, at minimum, from two analyses performed in a single run. For some agonists, the results are the mean of more than one run. The tested peptide concentrations are: 10000, 1000, 100, 10, 3, 1, 0.1, 0.01, 0.003, 0.001, 0.0001 and 0.00001 nM.

human VPAC1 = biological target: T2, human VPAC1 (Homo sapiens, UniProt P32241); experiment: Filter binding assay, 125I-labeled VIP tracer, VPAC1 membranes; conditions: read-out: Human VPAC1 Receptor Binding (IC50; nM)
T2 construct: expressed in transfected cells
T2 sequence (P32241 31-457): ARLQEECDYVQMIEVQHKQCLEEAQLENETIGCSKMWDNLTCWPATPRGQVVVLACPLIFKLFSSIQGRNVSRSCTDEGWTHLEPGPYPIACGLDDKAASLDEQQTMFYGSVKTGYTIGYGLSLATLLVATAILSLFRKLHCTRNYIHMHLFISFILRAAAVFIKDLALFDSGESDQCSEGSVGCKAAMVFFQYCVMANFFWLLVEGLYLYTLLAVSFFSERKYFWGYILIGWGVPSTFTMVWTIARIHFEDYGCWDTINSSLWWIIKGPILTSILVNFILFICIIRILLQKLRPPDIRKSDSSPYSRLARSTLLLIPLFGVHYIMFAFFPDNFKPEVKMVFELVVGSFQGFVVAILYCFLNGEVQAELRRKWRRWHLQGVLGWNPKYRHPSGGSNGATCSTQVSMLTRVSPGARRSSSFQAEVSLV
Procedure: (§1) For this assay, the solutions and equipment include:
(§2) Presoak solution: 0.5% Polyethyleneamine in Aqua dest
(§3) Buffer for flushing filter plates: 25 mM HEPES pH 7.4
(§4) Blocking buffer: 25 mM HEPES pH 7.4; 0.2% protease free BSA
(§5) Assay buffer: 25 mM HEPES pH 7.4; 0.5% protease free BSA
(§6) Dilution and assay plate: PS-Microplate, U form
(§7) Filtration Plate: Multiscreen FB Opaque Plate; 1.0 μM Type B Glasfiber filter
(§8) In order to prepare the filter plates, the presoak solution is aspirated by vacuum filtration. The plates are flushed twice with 200 μL flush buffer. 200 μL blocking buffer is added to the filter plate. The filter plate is then incubated with 200 μL presoak solution for 1 hour at room temperature.
(§9) The assay plate is filled with 25 μL assay buffer, 25 μL membranes (2.5 μg) suspended in assay buffer, 25 μL compound (agonist) in assay buffer, and 25 μL tracer (about 40000 cpm) in assay buffer. The filled plate is incubated for 1 hour with shaking.
(§10) The transfer from assay plate to filter plate is conducted. The blocking buffer is aspirated by vacuum filtration and washed two times with flush buffer. 90 μL is transferred from the assay plate to the filter plate. The 90 μL transferred from assay plate is aspirated and washed three times with 200 μL flush buffer. The plastic support is removed. It is dried for 1 hour at 60° C. 30 μL Microscint is added. The count is performed.

human PAC1 = biological target: T3, human PAC1 (Homo sapiens, UniProt P41586); experiment: Filter binding assay, 125I-labeled PACAP-27 tracer, PAC1 membranes; conditions: read-out: Human PAC1 Receptor Binding (IC50; nM)
T3 construct: expressed in transfected cells
T3 sequence (P41586 21-468): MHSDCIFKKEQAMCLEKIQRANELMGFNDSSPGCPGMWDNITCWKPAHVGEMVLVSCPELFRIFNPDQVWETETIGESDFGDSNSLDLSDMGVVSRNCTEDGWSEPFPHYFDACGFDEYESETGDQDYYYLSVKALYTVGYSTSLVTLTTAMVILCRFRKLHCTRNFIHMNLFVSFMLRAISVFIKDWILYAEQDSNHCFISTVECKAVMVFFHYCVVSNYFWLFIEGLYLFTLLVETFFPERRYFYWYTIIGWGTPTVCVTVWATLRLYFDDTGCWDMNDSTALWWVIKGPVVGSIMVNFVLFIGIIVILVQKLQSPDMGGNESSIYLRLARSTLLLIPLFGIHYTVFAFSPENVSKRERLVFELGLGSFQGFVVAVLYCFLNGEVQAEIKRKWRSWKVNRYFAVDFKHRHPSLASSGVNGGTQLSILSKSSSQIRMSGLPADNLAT
Procedure: as §1, §2, §3, §4, §5, §6, §7, §8, §9, §10

[1] = Rat serum stability (activity remaining, CHO-VPAC2 DiscoveRx read-out); type: in vitro ADME
Procedure: The rat serum is stored at 4° C. until use and is used within two weeks. […] The aliquot is stored with aprotinin at 4° C. The aliquot is stored without aprotinin at 37° C. The aliquots are incubated overnight. […] The plate(s) are washed with cells twice in incubation buffer. The plates are allowed to hold 50 μL incubation media per well for 15 minutes. 50 μL solution per well is transferred to the cells from the plate prepared with 11 serial 5× dilutions of peptide for the 4° C. and 37° C. aliquot for each peptide studied, using the maximal concentrations that are indicated by the primary screen, in duplicate. This step dilutes the peptide concentration by a factor of two. The cells are incubated at room temperature for 30 minutes. […] The cells are incubated on the shaker (300 rpm) for 1 hour. Normal procedure with the DiscoveRx kit is followed. cAMP standards are included in column 12. EC50 values are determined from the cAMP assay data.

| SMILES | EC50 (human VPAC2) | IC50 (human VPAC1) | IC50 (human PAC1) | Rat Serum Stability (estimated purity in % after overnight incub.) [1] |
| --- | --- | --- | --- | --- |
| CCCCCC(=O)N[C@@H](Cc1c[nH]cn1)C(=O)N[C@@H](CO)C(=O)N[C@@H](CC(=O)O)C(=O)N[C@@H](C)C(=O)N[C@H](C(=O)N[C@@H](Cc1ccccc1)C(=O)N[C@H](C(=O)N[C@@H](CC(=O)O)C(=O)N[C@@H](CC(N)=O)C(=O)N[C@@H](Cc1ccc(O)cc1)C(=O)N[C@H](C(=O)N[C@@H](CCCNC(=N)N)C(=O)N[C@@H](CC(C)C)C(=O)N[C@@H](CCCNC(=N)N)C(=O)NC(C)(C)C(=O)N[C@@H](CCC(N)=O)C(=O)N[C@H](C(=O)N[C@@H](C)C(=O)N[C@@H](C)C(=O)NC(C)(C)C(=O)N[C@@H](CCCCN)C(=O)N[C@@H](Cc1ccc(O)cc1)C(=O)N[C@@H](CC(C)C)C(=O)N[C@@H](CCC(N)=O)C(=O)N[C@@H](CO)C(=O)N[C@H](C(=O)N[C@@H](CCCCN)C(=O)NC(C)(C)C(=O)N[C@@H](CCCN)C(=O)NCC(=O)NCC(=O)N1CCC[C@H]1C(=O)N[C@@H](CO)C(=O)N[C@@H](CO)C(=O)NCC(=O)N[C@@H](C)C(=O)N1CCC[C@H]1C(=O)N1CCC[C@H]1C(=O)N1CCC[C@H]1C(=O)N[C@@H](CO)C(=O)O)[C@@H](C)CC)C(C)C)[C@@H](C)O)[C@@H](C)O)C(C)C [Agonist P357] | 0.23 nM | > 3000 nM | > 25000 nM | 38.83% |
| CCCCCC(=O)N[C@@H](Cc1c[nH]cn1)C(=O)N[C@@H](CO)C(=O)N[C@@H](CC(=O)O)C(=O)N[C@@H](C)C(=O)N[C@H](C(=O)N[C@@H](Cc1ccccc1)C(=O)N[C@H](C(=O)N[C@@H](CC(=O)O)C(=O)N[C@@H](CC(N)=O)C(=O)N[C@@H](Cc1ccc(O)cc1)C(=O)N[C@H](C(=O)N[C@@H](CCCN)C(=O)N[C@@H](CC(C)C)C(=O)N[C@@H](CCCNC(=N)N)C(=O)NC(C)(C)C(=O)N[C@@H](CCC(N)=O)C(=O)N[C@H](C(=O)N[C@@H](C)C(=O)N[C@@H](C)C(=O)NC(C)(C)C(=O)N[C@@H](CO)C(=O)N[C@@H](Cc1ccc(O)cc1)C(=O)N[C@@H](CC(C)C)C(=O)N[C@@H](CCC(N)=O)C(=O)N[C@@H](CO)C(=O)N[C@H](C(=O)N[C@@H](CCCN)C(=O)N[C@@H](CC(N)=O)C(=O)N[C@@H](CCCN)C(=O)NCC(=O)NCC(=O)N1CCC[C@H]1C(=O)N[C@@H](CO)C(=O)N[C@@H](CO)C(=O)NCC(=O)N[C@@H](C)C(=O)N1CCC[C@H]1C(=O)N1CCC[C@H]1C(=O)N1CCC[C@H]1C(=O)N[C@@H](CO)C(=O)O)[C@@H](C)CC)C(C)C)[C@@H](C)O)[C@@H](C)O)C(C)C [Agonist P386] (Hexanoyl-HSDAVFTDNYT[Orn]LR[Aib]QVAA[Aib]SYLQSI[Orn]N[Orn]GGPSSGAPPPS-OH; C-terminus assumed) | 0.65 nM | > 3000 nM | > 25000 nM | 71.47% |
| CCCCCC(=O)N[C@@H](Cc1c[nH]cn1)C(=O)N[C@@H](CO)C(=O)N[C@@H](CC(=O)O)C(=O)N[C@@H](C)C(=O)N[C@H](C(=O)N[C@@H](Cc1ccccc1)C(=O)N[C@H](C(=O)N[C@@H](CC(=O)O)C(=O)N[C@@H](CC(N)=O)C(=O)N[C@@H](Cc1ccc(O)cc1)C(=O)N[C@H](C(=O)N[C@@H](CCCN)C(=O)N[C@@H](CC(C)C)C(=O)N[C@@H](CCCNC(=N)N)C(=O)NC(C)(C)C(=O)N[C@@H](CCC(N)=O)C(=O)N[C@H](C(=O)N[C@@H](C)C(=O)N[C@@H](C)C(=O)NC(C)(C)C(=O)N[C@@H](CCCN)C(=O)N[C@@H](Cc1ccc(O)cc1)C(=O)N[C@@H](CC(C)C)C(=O)N[C@@H](CCC(N)=O)C(=O)N[C@@H](CO)C(=O)N[C@H](C(=O)N[C@@H](CCCN)C(=O)N[C@@H](CCCN)C(=O)NCC(=O)NCC(=O)N1CCC[C@H]1C(=O)N[C@@H](CO)C(=O)N[C@@H](CO)C(=O)NCC(=O)N[C@@H](C)C(=O)N1CCC[C@H]1C(=O)N1CCC[C@H]1C(=O)N1CCC[C@H]1C(=O)N[C@@H](CO)C(=O)O)[C@@H](C)CC)C(C)C)[C@@H](C)O)[C@@H](C)O)C(C)C [Agonist P397] (Hexanoyl-HSDAVFTDNYT[Orn]LR[Aib]QVAA[Aib][Orn]YLQSI[Orn][Orn]GGPSSGAPPPS-OH; C-terminus assumed) | 0.15 nM | > 3000 nM | > 25000 nM | 71.07% |
